Measurements published in PMC5520492, “Inhibition of DNA2 nuclease as a therapeutic strategy targeting replication stress in cancer cells” (Oncogenesis, 2017).
Where a name gives a salt, the structure may show the parent alone. Read-outs that look alike come from different tables or passages of the source.

How the values were obtained:
[1] = target: T1, yDna2 (Saccharomyces cerevisiae, UniProt P38859); experiment: High-throughput fluorescence nuclease assay with yDna2 (triply labeled (dT)30 ssDNA); type: biochemical, yeast; conditions: for inhibition at 33.33 µM: read-out: % Inhibition yDna2
T1 construct: made in house
Experimental: (§1) The screen entailed the use of oligonucleotide (dT)30 having a reporter fluorescent moiety, 6-FAM on the 5′ end, and the dark quenching group, Iowa Black FQ, on the 3′ end. In addition, a second dark quencher ZEN was placed between the 9th and 10th base (Figure 2a). The fluorescence emitted by 6-FAM is quenched by FRET, but it increases when DNA is degraded by Dna2. […] The inhibitory activity of the compounds was determined as a reduction in fluorescent signal compared with the dimethylsulfoxide (DMSO) only control. […] We screened ~50 000 chemical compounds from six different libraries (Supplementary Table S1) to identify chemical inhibitors of the Dna2 nuclease activity. […] The DNA2 nuclease domain is well conserved among eukaryotes, and therefore we reasoned that inhibitors of yDna2 will likely also work with the human counterpart.
(§2) Initial screen, it was performed with yDna2.[22] Then, the top candidate compounds were tested on hDNA2. Identical reaction conditions were used for assaying the nuclease activity of yDna2 and hDNA2. […] The reaction buffer was 20 mM HEPES/NaOH, pH 7.5, 60 mM KCl, 1 mM DTT, 100 μg/ml bovine serum albumin and 0.05% Triton X-100. The nuclease assay was initiated by adding MgCl2 (3 mM final concentration). T5 nuclease was assayed in the buffer (50 mM potassium acetate, pH 7.9, 20 mM Tris-acetate, 10 mM magnesium acetate and 1 mM DTT) provided by the vendor (NEB, Ipswich, MA, USA). The concentration of the fluorogenic substrate was 0.1 μM. The optimal amount of yDna2, hDNA2 and T5 nuclease was determined by utilizing the Kaleidagraph software (Reading, PA, USA) to fit the data according to Michaelis Menton Kinetics (V=V0+Vmax*x/(Km+x)). […] The Z’ value was calculated as previously described.[50] Cell proliferation was determined using 4,6-diamidino-2-phenylindole staining followed by high-throughput microscopy in a 384-well plate setup. In brief, cells were fixed with formaldehyde, washed and stained with 4,6-diamidino-2-phenylindole and the number of nuclei in each well counted by automated microscopy. The data were analyzed as described.[51]

[2] = target: T2, T5 nuclease (Escherichia phage T5, UniProt P06229); experiment: T5 nuclease counter-screen (fluorescence nuclease assay); type: biochemical; design: concentration or dose not given beside the values; conditions: re-screening against T5 nuclease
T2 construct: purchased NEB
Experimental: as §1, §2

[3] = tested on: U2OS cells; experiment: Cell-based viability/proliferation screen, DAPI staining and automated microscopy; design: species or system human; conditions: Homo sapiens, 10 pM to 10 μM, DAPI staining, read-out: IC50 from Screening Cell Based
Experimental: The biological effectiveness of the 39 compounds selected by re-screening was determined by measuring their half maximal inhibitory concentration (IC50) biochemically and in a cell-based system using the 384-well platform (Supplementary Table S2). […] We conducted the viability assay in duplicate on three separate occasions using a concentration range of 10 pM to 10 μM for each compound. Cell proliferation was determined using 4,6-diamidino-2-phenylindole staining and microscopy.
In addition, a second dark quencher ZEN (N,N-diethyl-4-(4-nitronaphthalen-1-ylazo)-phenylamine, absorption max.=532 nm) is placed between 9th and 10th base (Figure 2a). Initial screen, it was performed with yDna2.[22] Then, the top candidate compounds were tested on hDNA2. Identical reaction conditions were used for assaying the nuclease activity of yDna2 and hDNA2. […] The reaction buffer was 20 mM HEPES/NaOH, pH 7.5, 60 mM KCl, 1 mM DTT, 100 μg/ml bovine serum albumin and 0.05% Triton X-100. The nuclease assay was initiated by adding MgCl2 (3 mM final concentration). T5 nuclease was assayed in the buffer (50 mM potassium acetate, pH 7.9, 20 mM Tris-acetate, 10 mM magnesium acetate and 1 mM DTT) provided by the vendor (NEB, Ipswich, MA, USA). The concentration of the fluorogenic substrate was 0.1 μM. The optimal amount of yDna2, hDNA2 and T5 nuclease was determined by utilizing the Kaleidagraph software (Reading, PA, USA) to fit the data according to Michaelis Menton Kinetics (V=V0+Vmax*x/(Km+x)). […] All the compounds were dissolved in DMSO and DMSO alone was used as control; the final concentration of DMSO was at 3.33% for protein-based assay and 0.1% for cell-based assay. The Z’ value was calculated as previously described.[50] Cell proliferation was determined using 4,6-diamidino-2-phenylindole staining followed by high-throughput microscopy in a 384-well plate setup. In brief, cells were fixed with formaldehyde, washed and stained with 4,6-diamidino-2-phenylindole and the number of nuclei in each well counted by automated microscopy. The data were analyzed as described.[51]

[4] = screen at fixed inhibitor concentration (33.33 μM), 0.09 nM Dna2

T1 sequence (P38859 whole entry): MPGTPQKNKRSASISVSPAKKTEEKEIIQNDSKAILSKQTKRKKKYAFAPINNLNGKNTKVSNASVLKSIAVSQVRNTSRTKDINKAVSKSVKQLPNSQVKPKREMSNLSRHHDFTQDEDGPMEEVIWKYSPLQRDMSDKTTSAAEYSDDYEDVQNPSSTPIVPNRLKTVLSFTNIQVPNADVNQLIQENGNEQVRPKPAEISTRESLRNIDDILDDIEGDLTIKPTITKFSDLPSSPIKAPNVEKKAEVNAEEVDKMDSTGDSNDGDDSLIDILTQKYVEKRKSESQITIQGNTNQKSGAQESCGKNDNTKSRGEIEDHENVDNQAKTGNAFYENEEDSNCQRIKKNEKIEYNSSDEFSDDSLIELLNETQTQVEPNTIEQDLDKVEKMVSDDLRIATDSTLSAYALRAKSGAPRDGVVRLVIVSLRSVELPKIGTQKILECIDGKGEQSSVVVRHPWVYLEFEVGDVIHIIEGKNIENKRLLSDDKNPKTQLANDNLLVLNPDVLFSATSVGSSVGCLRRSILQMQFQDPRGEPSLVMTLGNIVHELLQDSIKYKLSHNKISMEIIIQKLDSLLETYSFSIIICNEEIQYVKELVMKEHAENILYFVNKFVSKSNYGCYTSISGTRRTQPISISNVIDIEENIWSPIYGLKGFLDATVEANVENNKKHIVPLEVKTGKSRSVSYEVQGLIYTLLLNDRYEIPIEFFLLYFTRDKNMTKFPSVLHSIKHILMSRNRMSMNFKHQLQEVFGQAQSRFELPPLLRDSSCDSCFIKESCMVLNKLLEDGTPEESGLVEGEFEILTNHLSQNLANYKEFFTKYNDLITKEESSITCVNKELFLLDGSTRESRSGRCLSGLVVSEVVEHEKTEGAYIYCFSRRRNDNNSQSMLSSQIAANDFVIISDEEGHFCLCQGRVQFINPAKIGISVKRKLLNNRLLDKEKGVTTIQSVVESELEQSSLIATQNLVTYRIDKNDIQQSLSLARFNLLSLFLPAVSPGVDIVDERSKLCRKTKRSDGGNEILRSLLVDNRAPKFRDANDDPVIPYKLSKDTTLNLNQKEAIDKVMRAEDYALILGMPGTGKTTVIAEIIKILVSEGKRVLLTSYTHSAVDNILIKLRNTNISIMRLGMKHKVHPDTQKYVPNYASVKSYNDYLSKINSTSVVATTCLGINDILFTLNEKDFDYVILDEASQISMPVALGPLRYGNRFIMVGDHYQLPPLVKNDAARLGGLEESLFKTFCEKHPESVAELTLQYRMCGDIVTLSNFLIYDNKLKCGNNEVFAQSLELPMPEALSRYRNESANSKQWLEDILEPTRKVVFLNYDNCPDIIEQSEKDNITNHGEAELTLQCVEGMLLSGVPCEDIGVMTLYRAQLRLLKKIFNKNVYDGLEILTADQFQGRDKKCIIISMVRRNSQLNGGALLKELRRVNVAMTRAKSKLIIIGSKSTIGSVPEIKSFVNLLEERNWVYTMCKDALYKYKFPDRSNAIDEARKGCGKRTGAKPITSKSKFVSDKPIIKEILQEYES
T2 sequence (P06229 whole entry): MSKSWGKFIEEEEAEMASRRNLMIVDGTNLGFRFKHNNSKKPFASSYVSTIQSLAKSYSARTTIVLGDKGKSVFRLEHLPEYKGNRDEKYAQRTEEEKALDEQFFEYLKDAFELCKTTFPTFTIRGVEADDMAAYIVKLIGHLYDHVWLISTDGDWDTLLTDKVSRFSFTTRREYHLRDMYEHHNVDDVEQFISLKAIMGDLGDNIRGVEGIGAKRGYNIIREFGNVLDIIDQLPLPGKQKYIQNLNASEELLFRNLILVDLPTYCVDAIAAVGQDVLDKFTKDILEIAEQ

Compound	% Inhibition T5 nuclease [2] [%]	% Inhibition yDna2 [1, 4] [%]	further results
Cc1cc2nc3ccc(N(C)C)cc3[s+]c2cc1N [NSC36758]	83.9	–	inhibition at 33.33 µM [1, 4]: 100%
CC[N+](C)(CC)CCC[n+]1c(-c2ccccc2)c2cc(N)ccc2c2ccc(N)cc21.[I-].[I-] [Propidium Iodide, reference compound]	100	100	–
Cc1cc(NCCCCCCCNc2cc(C)nc3cc(N)ccc23)c2ccc(N)cc2n1 [NSC273829]	56.5	–	inhibition at 33.33 µM [1, 4]: 74.4%
ClN=C1C=CC=CC1=NCl [NSC344494]	97.9	51.4	–
Cl.O=C1c2cccc(NCCCNCCO)c2C(=O)c2cccc(NCCCNCCO)c21 [NSC363998]	74.5	99	–
COc1cccc2c1C(=O)c1c(O)c3c(c(O)c1C2=O)C[C@@](O)(C(C)=O)C[C@@H]3O[C@H]1C[C@H](N)[C@H](O)[C@H](C)O1 [Daunorubicin hydrochloride, reference compound]	98.1	–	inhibition at 33.33 µM [1]: 100%
O=C(Nc1ccc(C2=NCCN2)cc1)c1ccc(Cl)c(C(=O)Nc2ccc(C3=NCCN3)cc2)c1 [NSC67436]	100	100	–
COc1ccc2nc(C)cc(NCCCCCCCCCNc3cc(C)nc4ccc(OC)cc34)c2c1 [NSC10010]	93.7	90.3	–
O=C(Nc1ccc(C2=NCCN2)cc1)c1ccc(C(=O)Nc2ccc(C3=NCCN3)cc2)c(Cl)c1 [NSC60339]	100	–	inhibition at 33.33 µM [1]: 100%
Cc1cc(N)c2cc(NC(=O)/C=C/c3ccccc3Cl)ccc2n1 [NSC33353]	100	100	–
Nc1ccc(Cn2ccc3c4c(N)nc(N)nc4ccc32)cc1 [NSC309401]	100	100	–
Cc1cc2c(c3oc(C4(C)OC4C4OC4C)cc(=O)c13)C(=O)c1c(O)c(C3CC(C)(N(C)C)C(O)C(C)O3)cc(C3CC(N(C)C)C(O)C(C)O3)c1C2=O (stereo not drawn) [NSC70929]	100	100	–
COc1ccc2c(NCCCCCCNc3c4ccccc4nc4cc(OC)ccc34)c3ccccc3nc2c1 [NSC260610]	100	–	inhibition at 33.33 µM [1, 4]: 100%
CN1CCN(c2ccc3nc(-c4c(N)c5c(F)cccc5[nH]c4=O)[nH]c3c2)CC1 [(Dovitinib) CHIR258, Dovitinib, reference compound]	60.2	–	inhibition at 33.33 µM [1, 4]: 54%
COc1cc(-c2ccc(N=Nc3ccc4c(S(=O)(=O)[O-])cc(S(=O)(=O)[O-])c(N)c4c3O)c(OC)c2)ccc1N=Nc1ccc2c(S(=O)(=O)[O-])cc(S(=O)(=O)[O-])c(N)c2c1O.[Na+].[Na+].[Na+].[Na+] [Chicago Sky blue 6B, reference compound]	100	69	–
Cc1cc(N)c2ccccc2[n+]1CCCCCCCCCC[n+]1c(C)cc(N)c2ccccc21 [NSC166454]	88.9	–	inhibition at 33.33 µM [1, 4]: 55.4%
Deqalinium dichloride [reference compound]	100	100	–

Compound	% Inhibition T5 nuclease [2] [%]	% Inhibition yDna2 [1, 4] [%]	further results
Cn1ccc(=Nc2ccc(NC(=O)c3ccc(N=c4ccn(C)c5ccc([N+](=O)[O-])cc45)cc3)cc2)cc1 [NSC260594]	100	94.8	–
O=C1c2c(O)ccc(O)c2C(=O)c2c(NCCNCCO)ccc(NCCNCCO)c21 [Mitoxantrone dihydrochloride, reference compound]	100	–	inhibition at 33.33 µM [1, 4]: 100%
CO[C@H]1C[C@@H]2\C=C(C)/C=C/C=C\C(=O)N[C@H](c3ccccc3)C/C=C/CC[C@H](O)CC(=O)C2=C1O [NSC343256]	72	71	–
CCCCC(CC)CNC(=N)NC(=N)NCCCCCCNC(=N)NC(=N)NCC(CC)CCCC (stereo not drawn) [Alexidine dihydrochloride, reference compound]	100	–	inhibition at 33.33 µM [1, 4]: 63.5%
COc1ccc2c(C)nc(NC3=NC(C)(C)CC(C)=N3)nc2c1 [Compound 5309857]	77.3	59.9	–
NC(N)=NCCCS(=O)(=O)Nc1ccc(Nc2c3ccccc3nc3cc([N+](=O)[O-])ccc23)cc1 [NSC177365]	100	83.3	–
CCN(CC)CCCC(C)Nc1nc(C)cc(Nc2ccc3nc(C)cc(N)c3c2)n1 (stereo not drawn) [NSC23766, reference compound]	94.7	100	–
CC(=O)[O-].Cc1c2cc[n+](CCN3CCCCC3)cc2c(C)c2c1[nH]c1ccc(O)cc12 [NSC311153]	100	100	–
[Mo] [NSC622124]	96.1	93.4	–
O=C(Nc1ccc(Nc2ccncc2)cc1)c1ccc(Nc2ccnc3ccc([N+](=O)[O-])cc23)cc1 [NSC146771]	100	76.5	–
CN(C)C/C=C/C(=O)Nc1cc2c(Nc3ccc(F)c(Cl)c3)ncnc2cc1O[C@H]1CCOC1 [BIBW2992, reference compound]	–	–	IC50 ([1]; compounds that inhibit yDna2 but not T5 nuclease, 384-well platform, read-out: IC50 from Screening In Vitro): 7.2 µM; IC50 [3]: 1.2 µM
c1ccc2c(NCCCCCCCCNc3c4ccccc4nc4ccccc34)c3ccccc3nc2c1 [NSC219734]	100	85	–
COc1cccc2c1C(=O)c1c(O)c3c(c(O)c1C2=O)CC(O)(/C(C)=N/O)CC3OC1CC(N)C(O)C(C)O1 (stereo not drawn) [NSC143491]	97.9	100	–
CCN(CC)Cc1cc2[nH]c3c4ccc(Cl)cc4ncc3c2cc1OC [NSC317605]	99.2	100	–
CCN(CC)CCCC(C)Nc1c2ccc(Cl)cc2nc2ccc(OC)cc12 (stereo not drawn) [Quinacrine dihydrochloride, reference compound]	55.4	–	inhibition at 33.33 µM [1, 4]: 67.8%
COc1cccc2c1C(=O)c1c(O)c3c(c(O)c1C2=O)C[C@@](O)(C(=O)CO)C[C@@H]3O[C@H]1C[C@H](N)[C@H](O)[C@H](C)O1 [Doxorubicin hydrochloride, reference compound]	100	–	inhibition at 33.33 µM [1, 4]: 100%
